{
  "source": "paper PMC8009417",
  "about": "“Selective killing of homologous recombination-deficient cancer cell lines by inhibitors of the RPA:RAD52 protein-protein interaction” (PLoS ONE, 2021)",
  "key": {"RAD52 protein level": {"test_system": "RAD52 protein level", "assay": "Simple Western of RAD52 protein level after treatment", "assay_type": "cell-based, human", "settings": "72 h at doses near EC50", "description": "Fig 6 The effect of mitoxantrone treatment on RAD52 levels and DNA damage. […] Data and ANOVA statistical analyses are described in the material and methods section. Significance statistics are shown with single, double, or triple asterisks representing P<0.05, P<0.005, or P<0.0005, respectively.\nFor western analysis, each cell line was grown and treated as described above. Protein levels were measured in lysates by size separation with a ProteinSimple PeggySue instrument following the manufacturer’s recommendations. Lysates were prepared using the NanoPro Cell Lysis Kit with Bicine/CHAPS (ProteinSimple CBS403) at 0.75 mg/mL concentration when mixed with master mix (containing SDS, DTT and fluorescent molecular weight markers; ProteinSimple PS-FL01-8) and heated for 5 min at 95°C. Electrophoretic nanocapillary size separation of proteins was performed using default settings. After separation, UV light cross-linked proteins to the capillary wall. Capillaries were then washed and incubated with primary antibodies, washed, and incubated with anti-rabbit secondary antibody conjugated with HRP (ProteinSimple DM-001). Finally, luminol and peroxide were applied to generate chemoluminescence which was imaged by a CCD camera. Primary antibody concentrations were optimized and were diluted as follows: Abcam anti-RAD52 antibody (ab18263, diluted 1:25), R&D Systems Human Phospho-histone H2AX (S139) antibody (AF2288, diluted 1:100), and Cell Signalling Technology Pan-Actin antibody (#4968, diluted 1:2500).\nThe Simple western data were processed and analyzed with ProteinSimple Compass software. Peak areas were calculated using dropped lines. Each lysate was analyzed for RAD52 and γH2AX levels three times and for Actin two times (see S2 Fig). Replicate peak areas for RAD52 and γH2AX were averaged, divided by the average Actin peak area of that sample, multiplied by 100 and graphed using SigmaPlot 7.0."}, "[1]": {"test_system": "BRCA1-deficient UWB1.289 ovarian cancer cells (BRCA1-)", "assay": "Cell viability assay (PrestoBlue, 72 h), UWB1.289", "assay_type": "cell-based", "settings": "Homo sapiens, UWB1289, estimated from the graphs", "source_text": "(§1) BRCA1-deficient UWB1.289 cells corrected with wild-type BRCA1 gene (BRCA1+; closed triangle) and parental BRCA1-deficient UWB1.289 (BRCA1-; closed circle). Two PARPi-resistant cell lines derived from UWB1.289, UWB1.289.SYr12 (closed diamond) and UWB1.SYr13 (X), were also examined.\n(§2) UWB1.289 (a gift from Dr. Lee Zou, Harvard Medical School, Boston, MA) were derived from a serous ovarian carcinoma with a germline BRCA1 mutation and a deletion of the wild-type allele. […] Two PARP-resistant cell lines, SYr12 and SYr13, were derived from the UWB1.289. The Mammary Epithelial growth media, along with SupplementMix solution for UWB1 cell lines, were obtained from PromoCell GmbH and mixed as described.\n(§3) Cells were seeded 5 x 10^3 cells per well in 96-well plates in a 90 μL volume per well one day before treatment. Cells in 96-well plates were incubated with increasing concentrations of the compound or vehicle control (1% DMSO) for 72 hours. Each treatment plate contained nine concentrations of a compound in sextuplicate. Growth inhibition was determined using PrestoBlue reagent (Life Technologies, #A13261). Fluorescent measurements were taken using a Spectramax M5 plate reader (MDS). To assess cells’ replication in the absence of compounds as a control, six wells on each plate were treated with vehicle to be read in triplicate at the initial treatment day (T0) and at 72-hour read (T100)."}, "[2]": {"test_system": "single-strand annealing (SSA) in U2OS-SA cells", "assay": "Cell-based DSB repair assay, SSA (SA-GFP reporter, FACS)", "settings": "4 nM, 2 h pre-treatment, three days", "description": "(A) The effect of mitoxantrone (MX) on SSA and HR were studied with cell-based DSB repair assays. U2OS-SA and U2OS-DR cells were pre-treated with mitoxantrone for two hours before transfection of the SceI-expression plasmid. Then cells were grown in the presence of mitoxantrone for three days. DSB repair activities were determined by (B) FACS analysis. […] U2OS-SA cells were pre-treated with indicated concentrations of mitoxantrone for two hours, before I-SceI-expression vector transfection. After 72 hours incubation, the cells were harvested, and lysates were prepared. Lysate from each treatment was analyzed by 12% SDS-PAGE and the expression levels of I-SceI was determined by the western blot using anti-HA antibody. The p70 of RPA was used as a loading control. Ratios of I-SceI to p70 was obtained with ImageJ and are shown at the bottom of the image. C: control experiment without the addition of mitoxantrone. (D, E) Analysis of DSB repair activiies by western blots. […] At least three independent experiments were performed. Error bars represent standard deviations."}, "[3]": {"test_system": "HCC1937 cells corrected with wild-type BRCA1 gene (BRCA1+)", "assay": "Cell viability assay (PrestoBlue, 72 h), HCC1937+BRCA1", "assay_type": "cell-based", "settings": "Homo sapiens, estimated from the graphs", "description": "Fig 2 BRCA1-deficient HCC1937 breast cancer cell line survival assay. BRCA1-deficient HCC1937 cells corrected with wild-type BRCA1 gene (BRCA1+; closed triangle), and with an empty vector (BRCA1-; closed circle) were examined. For each experiment (Figs 2–4), cell lines were treated with nine concentrations of (A) quinacrine, (B) mitoxantrone, and (C) doxorubicin in 96-well culture plates at 5x10^3 cell/well density. Each treatment point was made in sextuplicate. Treated cells were incubated for 72 hours at 37°C before assessing cell viability using PrestoBlue. Data were normalized to vehicle control. The experiment was repeated three times. Error bars indicate the standard deviation.\nThe HCC1937 cell line (a gift from Dr. Simon Powell Memorial Sloan Kettering (MSK), New York) was derived from a mammary gland primary ductal carcinoma at the early onset of a tumor. This TNBC patient carried a germline mutation in BRCA1, resulting in carboxy-terminal truncated protein and loss of the second BRCA1 allele. BRCA1-restored and empty vector cell lines were also obtained by transfection of a vector containing a full-length human BRCA1 cDNA or an empty vector, respectively. The HCC1937 cell lines were cultured as described.\nas §3"}, "[4]": {"test_system": "PARPi-resistant UWB1.289.SYr12 cells", "assay": "Cell viability assay (PrestoBlue, 72 h), UWB1.289.SYr12", "assay_type": "cell-based", "settings": "Homo sapiens, estimated from the graphs", "source_text": "as §1, §2, §3"}, "[5]": {"test_system": "UWB1.289 cells corrected with wild-type BRCA1 gene (BRCA1+)", "assay": "Cell viability assay (PrestoBlue, 72 h), UWB1.289+BRCA1", "assay_type": "cell-based", "settings": "Homo sapiens, UWB1289, estimated from the graphs", "source_text": "as §1, §2, §3"}},
  "data": [
    {"smiles": "O=C1c2c(O)ccc(O)c2C(=O)c2c(NCCNCCO)ccc(NCCNCCO)c21", "note": "[Mitoxantrone, mitoxantrone]", "values": [
      {"measurement": "Change of RAD52 level with treatment", "setting": "RAD52 protein level; HCC1937 cells", "result": "the level of RAD52 increased"},
      {"measurement": "Change of RAD52 level with treatment", "setting": "RAD52 protein level; PE01 cells", "result": "dramatic reduction in RAD52 protein"},
      {"measurement": "Change of RAD52 level with treatment", "setting": "RAD52 protein level; UWB1 cells", "result": "the level of RAD52 decreased"},
      {"measurement": "EC50", "setting": "[1]", "result": 200, "unit": "nM"},
      {"measurement": "inhibition at 0.004 µM", "setting": "[2]", "result": 72, "unit": "%"},
      {"measurement": "EC50", "setting": "[3]", "result": "> 5000", "unit": "nM"},
      {"measurement": "EC50", "setting": "[4]", "result": 2400, "unit": "nM"},
      {"measurement": "EC50", "setting": "[5]", "result": 3000, "unit": "nM"}
    ]}
  ]
}
